Test results: patent US20230365602A1, “COMPOUND FOR USE IN THE TREATMENT OF PROTOZOAL DISEASES AND PROCESS FOR PRODUCTION OF SAID COMPOUND” (QUADREL S.R.L., priority 2020, published 2023)
Entries after “also recorded” stand apart in the source; their conditions may differ. Read-outs that look alike come from different tables or passages of the source.

Experiments:
CYP1A2 = biological target: T1, CYP1A2 (Homo sapiens, UniProt P05177); test: Early toxicity: CYP1A2 inhibition; type: in vitro ADME; conditions: mean ± SD, Table 4a; for inhibition at 10 µM: human
T1 sequence (P05177 1-516): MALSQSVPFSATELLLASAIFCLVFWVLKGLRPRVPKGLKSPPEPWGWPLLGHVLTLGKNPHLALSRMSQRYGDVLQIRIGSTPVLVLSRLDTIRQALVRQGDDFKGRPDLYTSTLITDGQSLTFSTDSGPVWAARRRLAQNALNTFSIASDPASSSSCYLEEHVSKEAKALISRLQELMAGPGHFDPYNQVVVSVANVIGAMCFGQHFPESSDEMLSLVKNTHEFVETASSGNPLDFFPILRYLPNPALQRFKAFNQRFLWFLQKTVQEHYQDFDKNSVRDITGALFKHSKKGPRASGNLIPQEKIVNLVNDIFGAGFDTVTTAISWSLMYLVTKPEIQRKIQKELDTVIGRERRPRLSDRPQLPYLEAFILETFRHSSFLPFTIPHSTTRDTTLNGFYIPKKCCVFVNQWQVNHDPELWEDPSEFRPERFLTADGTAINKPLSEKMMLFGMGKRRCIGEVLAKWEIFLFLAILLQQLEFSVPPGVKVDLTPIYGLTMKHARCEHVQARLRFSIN

CYP2D6 = CYP2D6 (Homo sapiens, UniProt P10635); test: Early toxicity: CYP2D6 inhibition; type: in vitro ADME; conditions: Table 4a; for inhibition at 10 µM: human
CYP2C9 = CYP2C9 (Homo sapiens, UniProt P11712); test: Early toxicity: CYP2C9 inhibition; type: in vitro ADME; conditions: mean ± SD, Table 4a; for inhibition at 10 µM: human
A549 = test: Early toxicity: A549 cell growth; type: cell-based; conditions: 10 μM; 100% = not cytotoxic, 0% = cytostatic, −100% = cytotoxic
CYP2C19 = CYP2C19 (Homo sapiens, UniProt P33261); test: Early toxicity: CYP2C19 inhibition; type: in vitro ADME; conditions: Table 4a; for inhibition at 10 µM: human
mitochondria = test: Early toxicity: mitochondrial toxicity; type: cell-based; conditions: for % mitochondrial toxicity: 10 μM, 100% mitotoxic, 0% not mitotoxic; for mitochondrial toxicity: Table 4b
W1-38 = test: Early toxicity: W1-38 cell growth; type: cell-based; conditions: 10 μM
CYP3A4 = CYP3A4 (Homo sapiens, UniProt P08684); test: Early toxicity: CYP3A4 inhibition; type: in vitro ADME; conditions: Table 4a; for inhibition at 10 µM: human, read-out: % inhibition CYP3A4
[1] = test system: T. b. brucei L427 WT Blood-Stream Form; test: Anti-parasitic activity against T. b. brucei blood-stream form (resazurin 72 h assay); type: cell-based; conditions: Table 2; for inhibition at 10 µM: Trypanosoma brucei, read-out: Single Dose Assay 10 μM Mean Inhibitory Activity (%) ± SD
[2] = test system: PMA-differentiated THP-1 cells; test: Toxicity MTT assay in PMA-differentiated THP-1 cells; type: cell-based, human; conditions: for CC50: read-out: Toxicity CC50 ± SD or NOAEL
From the text: (§1) The in vitro antiparasitic activity against L. infantum (MHOM/MA/67/ITMAP-263) and the toxicity against THP-1 macrophages is presented in Table 1.

hERG channel = hERG channel (Homo sapiens, UniProt Q12809); test: Early toxicity: hERG inhibition; conditions: for inhibition at 10 µM: human
[3] = test system: L. infantum (MHOM/MA/67/ITMAP-263) intracellular amastigotes; test: Anti-parasitic activity against L. infantum intracellular amastigotes (infection with axenic amastigotes luciferase positive); type: cell-based; conditions: Table 1; for inhibition at 10 µM / IC50: Leishmania infantum; for inhibition at 10 µM: read-out: Single Dose Assay 10 μM Mean Inhibitory Activity (%) ± SD; for IC50: read-out: Dose Response Curves IC50 ± SD; for Selectivity Index CC50/IC50 or NOAEL/IC50: THP-1 toxicity / L. infantum IC50
[4] = Toxicity MTT assay in PMA-differentiated THP-1 cells; type: cell-based, human; conditions: human, PMA-differentiated THP-1 cells (macrophages); for CC50: THP-1 macrophages, Table 1, read-out: Toxicity CC50 ± SD or NOAEL; for IC50: Table 4b, read-out: Cytotoxicity THP-1 (IC50)
From the text: as §1

[5] = Snapshot pharmacokinetics in plasma after oral gavage; type: in vivo, mice; conditions: mouse, plasma, po, healthy BALB/c mice, 20 mg/kg gavage, Table 13
Protocol: Pharmacology of 5-cyclopentadecylpentyl (2-(trimethylammonio)ethyl) phosphate (19) in mice.
Blood samples were collected from the tail vein at 0, 0.5, 0.75, 1, 3, 24 and 72 hours into heparinized tubes. Moreover, biodistribution of the molecule, 72h after administration, was determined in several organs of the treated mice, namely brain, liver, spleen, kidney, heart and bone marrow. […] J Chromatogr B, 865: 55-62) by liquid chromatography mass spectrometry (LC-MS/MS).

T. b. brucei GVR35 = test: Stage II HAT mice model, live imaging; type: in vivo

CYP2D6, sequence (P10635 whole entry): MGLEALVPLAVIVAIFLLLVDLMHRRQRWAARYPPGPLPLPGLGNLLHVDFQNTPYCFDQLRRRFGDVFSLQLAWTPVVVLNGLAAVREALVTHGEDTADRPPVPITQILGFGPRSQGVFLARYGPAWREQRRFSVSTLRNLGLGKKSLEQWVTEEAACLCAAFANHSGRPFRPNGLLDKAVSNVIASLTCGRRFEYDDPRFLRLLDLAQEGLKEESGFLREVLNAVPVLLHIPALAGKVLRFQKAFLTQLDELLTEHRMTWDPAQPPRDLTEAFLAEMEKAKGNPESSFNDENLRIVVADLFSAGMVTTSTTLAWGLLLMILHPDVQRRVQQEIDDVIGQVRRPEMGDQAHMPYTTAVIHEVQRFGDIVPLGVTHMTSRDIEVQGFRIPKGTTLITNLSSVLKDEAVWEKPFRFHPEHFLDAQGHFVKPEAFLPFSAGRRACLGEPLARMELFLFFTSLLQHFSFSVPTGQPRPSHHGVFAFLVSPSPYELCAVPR
hERG channel, sequence (Q12809 whole entry): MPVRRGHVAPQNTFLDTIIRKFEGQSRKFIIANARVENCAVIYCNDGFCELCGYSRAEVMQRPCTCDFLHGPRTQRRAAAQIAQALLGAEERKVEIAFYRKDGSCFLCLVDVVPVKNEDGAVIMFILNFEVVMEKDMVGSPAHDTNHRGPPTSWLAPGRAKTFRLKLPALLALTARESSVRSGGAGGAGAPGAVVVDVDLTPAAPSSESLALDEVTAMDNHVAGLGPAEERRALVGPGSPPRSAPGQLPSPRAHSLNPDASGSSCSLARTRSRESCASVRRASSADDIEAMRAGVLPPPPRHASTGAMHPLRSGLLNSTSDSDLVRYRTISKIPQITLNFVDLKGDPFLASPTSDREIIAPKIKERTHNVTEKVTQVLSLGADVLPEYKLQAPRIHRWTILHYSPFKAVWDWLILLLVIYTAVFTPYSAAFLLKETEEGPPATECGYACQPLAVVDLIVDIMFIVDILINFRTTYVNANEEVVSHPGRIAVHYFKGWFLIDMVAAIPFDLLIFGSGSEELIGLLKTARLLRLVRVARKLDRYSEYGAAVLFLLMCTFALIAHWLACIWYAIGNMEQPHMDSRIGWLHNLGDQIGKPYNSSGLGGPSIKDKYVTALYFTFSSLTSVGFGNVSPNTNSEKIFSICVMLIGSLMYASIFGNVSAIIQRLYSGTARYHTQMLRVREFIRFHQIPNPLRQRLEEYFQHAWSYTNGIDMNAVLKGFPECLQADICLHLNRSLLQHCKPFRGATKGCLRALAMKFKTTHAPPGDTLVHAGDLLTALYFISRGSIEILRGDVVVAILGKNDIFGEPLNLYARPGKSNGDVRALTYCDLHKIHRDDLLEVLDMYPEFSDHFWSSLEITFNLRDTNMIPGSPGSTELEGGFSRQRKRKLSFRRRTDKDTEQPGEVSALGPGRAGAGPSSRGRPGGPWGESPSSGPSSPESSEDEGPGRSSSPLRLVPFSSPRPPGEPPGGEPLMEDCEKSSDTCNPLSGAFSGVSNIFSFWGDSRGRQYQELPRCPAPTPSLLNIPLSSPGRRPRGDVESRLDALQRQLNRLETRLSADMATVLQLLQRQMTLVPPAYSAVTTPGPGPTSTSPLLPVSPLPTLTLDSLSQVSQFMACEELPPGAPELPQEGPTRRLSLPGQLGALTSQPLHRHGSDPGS
CYP2C19, sequence (P33261 whole entry): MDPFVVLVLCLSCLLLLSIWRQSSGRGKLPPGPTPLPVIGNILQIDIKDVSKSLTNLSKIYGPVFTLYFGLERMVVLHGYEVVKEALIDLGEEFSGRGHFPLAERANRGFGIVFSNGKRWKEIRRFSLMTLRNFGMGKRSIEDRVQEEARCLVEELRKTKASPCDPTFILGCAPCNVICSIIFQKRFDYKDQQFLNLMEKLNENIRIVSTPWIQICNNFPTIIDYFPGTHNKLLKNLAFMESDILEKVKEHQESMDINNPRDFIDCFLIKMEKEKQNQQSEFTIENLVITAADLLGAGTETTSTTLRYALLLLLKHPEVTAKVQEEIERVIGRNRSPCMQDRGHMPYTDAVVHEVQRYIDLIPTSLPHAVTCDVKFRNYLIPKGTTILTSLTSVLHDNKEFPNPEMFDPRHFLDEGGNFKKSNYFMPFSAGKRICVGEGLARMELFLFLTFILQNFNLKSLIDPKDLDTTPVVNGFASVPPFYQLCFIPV
CYP2C9, sequence (P11712 whole entry): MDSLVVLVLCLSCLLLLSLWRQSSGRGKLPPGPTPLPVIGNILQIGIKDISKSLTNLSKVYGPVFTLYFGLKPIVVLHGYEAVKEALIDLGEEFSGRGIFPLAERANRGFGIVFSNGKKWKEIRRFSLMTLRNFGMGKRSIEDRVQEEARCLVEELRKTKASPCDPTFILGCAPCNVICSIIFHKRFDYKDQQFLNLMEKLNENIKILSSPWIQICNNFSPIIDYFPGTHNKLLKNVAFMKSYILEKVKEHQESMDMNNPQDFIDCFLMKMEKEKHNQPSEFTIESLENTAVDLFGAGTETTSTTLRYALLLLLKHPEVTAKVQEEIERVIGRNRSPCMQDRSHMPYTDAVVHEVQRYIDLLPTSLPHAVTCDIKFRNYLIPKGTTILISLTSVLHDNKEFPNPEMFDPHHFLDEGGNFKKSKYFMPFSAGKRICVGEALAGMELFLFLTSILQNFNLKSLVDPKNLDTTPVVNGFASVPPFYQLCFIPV
CYP3A4, sequence (P08684 whole entry): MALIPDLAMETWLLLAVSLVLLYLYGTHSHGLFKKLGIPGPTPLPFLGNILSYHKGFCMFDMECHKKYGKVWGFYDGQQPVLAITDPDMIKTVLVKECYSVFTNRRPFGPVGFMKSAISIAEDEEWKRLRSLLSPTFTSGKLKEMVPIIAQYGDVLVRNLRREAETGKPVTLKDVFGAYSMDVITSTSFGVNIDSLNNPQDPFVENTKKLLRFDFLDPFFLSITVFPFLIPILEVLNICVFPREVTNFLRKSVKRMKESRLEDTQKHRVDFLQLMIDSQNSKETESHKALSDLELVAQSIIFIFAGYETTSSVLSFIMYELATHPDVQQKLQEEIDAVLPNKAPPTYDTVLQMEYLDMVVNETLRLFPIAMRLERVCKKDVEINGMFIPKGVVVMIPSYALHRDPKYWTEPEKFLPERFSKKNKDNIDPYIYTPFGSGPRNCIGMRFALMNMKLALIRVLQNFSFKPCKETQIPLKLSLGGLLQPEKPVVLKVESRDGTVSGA

Compound | % cell growth A549 (A549) | % mitochondrial toxicity (mitochondria) | CC50 ([2]; Table 2) | Flag for Interference, hERG (hERG channel; Table 4b) | CC50 [4] | inhibition at 10 µM ([3]; 10 μM) | IC50 [3] | Selectivity Index CC50/IC50 or NOAEL/IC50 [3] | inhibition at 10 µM (CYP1A2) | inhibition at 10 µM (CYP2D6; mean ± SD) | inhibition at 10 µM (CYP2C9) | inhibition at 10 µM (CYP2C19; mean ± SD) | mitochondrial toxicity (mitochondria) | inhibition at 10 µM (CYP3A4; 10 μM, mean ± SD) | IC50 [4] | inhibition at 10 µM (hERG channel) | also measured
C[N+](C)(C)CCCOP(=O)([O-])OCCCCCC1CCCCCCCCCCCCCC1 [Compound 20, 5-cyclonentadecyloentyl (3-(trimethylammonio)propyl) phosohate] | 104.50 ± 4.67% | −3.82 ± 5.49% | > 100 µM | (no) |  |  |  |  |  |  |  |  |  |  |  |  | % inhibition CYP1A2 (CYP1A2; 10 μM): 10.14 ± 3.87%; % inhibition CYP2D6 (CYP2D6; 10 μM, mean ± SD): 44.01 ± 3.51%; % inhibition CYP2C9 (CYP2C9; 10 μM): 15.44 ± 0.53%; % inhibition CYP2C19 (CYP2C19; 10 μM, mean ± SD): 52.28 ± 5.17%; % cell growth W1-38 (W1-38): 98.77 ± 10.61%; % inhibition CYP3A4 (CYP3A4; 10 μM, mean ± SD): 22.83 ± 5.05%; Single Dose Assay 10 μM Mean Inhibitory Activity (%) ± SD ([1]; 10 μM): 24 ± 10%; CC50 ([2]; THP-1 macrophages, Table 1): > 100 µM; IC50 ([2]; Table 4b, read-out: Cytotoxicity THP-1 (IC50)): > 100 µM; % inhibition hERG (hERG channel; 10 μM, Table 4b): 4.56 ± 15.55%; Single Dose Assay 10 μM Mean Inhibitory Activity (%) ± SD ([3]; 10 μM): 53 ± 6%
C[N+](C)(C)CCOP(=O)([O-])OCCCCC1CCCCCCCCCCC1 [Compound 16, 4-cyclododecylbutyl (2-(trimethylammonio)ethyl) phosphate] |  |  | > 100 µM |  | > 100 µM | 87 ± 17% | 0.86 ± 0.33 µM | >116 |  |  |  |  |  |  |  |  | 
C[N+](C)(C)CCOP(=O)([O-])OCCCCCC1CCCCCCCCCCC1 [Compound 17, 5-cyclododecylpentyl (2-(trimethylammonio)ethyl) phosphate] | 121.61 ± 8.94% | 110.46 ± 13.08% | > 100 µM | (no) | > 100 µM | 96 ± 2% | 0.6 ± 0.2 µM | >166 | 18.9 ± 0.69% | 48.9 ± 2.97% | 10.3 ± 6.3% | 35.9 ± 4.97% | exhibit mitochondrial toxicity | 55.3 ± 4.28% | > 100 µM | 26.3 ± 12.9% | CYP2D6 interaction / inhibition (CYP2D6; 10 μM): interact; also recorded: significant inhibition; CYP2C19 interaction / inhibition (CYP2C19; 10 μM): interact; also recorded: significant inhibition; AUC(0-inf) ([5]; read-out: AUC (0-∞)): 11300 ng·h/mL; AUC(0-inf) ([5]; read-out: AUC (0-∞) (μM h/mL)): 26.9 µM·h; Cmax ([5]; read-out: Cmax): 4.88 µM; Cmax ([5]; read-out: Cmax (μg/mL)): 2.05 µg/mL; Tmax ([5]; read-out: tmax): 3 h; half-life ([5]; read-out: t½ (converted)): 6.9 h; CYP3A4 interaction (CYP3A4): interact; activity against T. b. brucei blood-stream form [1]: unexpectedly high activity in the low micromolar range; inhibition at 10 µM ([1]; 10 μM): 21 ± 15%
C[N+](C)(C)CCOP(=O)([O-])OCCC1CCCCCCCCCCCCCC1 [Compound 28, 2-cyclopentadecylethyl (2-(trimethylammonio)ethyl) phosphate] | 120.79 ± 0.63% | 119.09 ± 14.82% |  | (no) | > 100 µM | 70 ± 7% | 1.12 ± 0.45 µM | >90 | 15.6 ± 2.12% | 37.7 ± 3.27% | 9.6 ± 4.6% | 21.3 ± 3.7% | exhibit mitochondrial toxicity | 27.8 ± 1.95% | > 100 µM | 39 ± 5.84% | 
N=C(N)c1ccc(OCCCCCOc2ccc(C(=N)N)cc2)cc1 [pentamidine, reference compound] |  |  |  |  |  |  |  |  |  |  |  |  |  |  |  |  | infection in the brain (T. b. brucei GVR35; 5 mg/kg/day IP): not able to clear infection in the brain
C[N+](C)(C)CCOP(=O)([O-])OCCC1CCCCCCCCCCC1 [Compound 27, 2-cyclododecylethyl (2-(trimethylammonio)ethyl) phosphate] | 126.46 ± 6.12% | 113.87 ± 2.81% |  | (no) | > 100 µM | 36 ± 5% |  |  | 22.2 ± 1.59% | 6.92 ± 4.21% | 13.7 ± 6.52% | 11 ± 5.72% |  | 24.8 ± 3.15% | > 100 µM | -4.11 ± 10.4% | 
Nc1nc(N)nc(Nc2ccc([As]3SCC(CO)S3)cc2)n1 (centres unmarked) [melarsoprol, reference compound] |  |  |  |  |  |  |  |  |  |  |  |  |  |  |  |  | infection outcome (words) (T. b. brucei GVR35; 10 mg/kg/day IP, 7 days of treatment): able to clear the infection
C[N+](C)(C)CCOP(=O)([O-])OCCCCC=C1CCCCCCCCCCC1 [Compound 12, 5-cyclododecylidenepentyl (2-(trimethylammonio)ethyl) phosphate] | 130.21 ± 5.63% | 113.57 ± 12.08% | > 100 µM | (no) | > 100 µM | 95 ± 2% | 0.9 ± 0.7 µM | >111 | 10.2 ± 5.03% | 15.1 ± 2.98% | 1.76 ± 1.59% | 11.2 ± 5.4% | exhibit mitochondrial toxicity | 35.7 ± 6.01% | > 100 µM | -2.04 ± 7.61% | inhibition at 10 µM ([1]; 10 μM): 8 ± 8%
C[N+](C)(C)CCOP(=O)([O-])OCCCC=C1CCCCCCCCCCC1 [Compound 11, 4-cyclododecylidenebutyl (2-(trimethylammonio)ethyl) phosphate] |  |  | > 100 µM |  | > 100 µM | 76 ± 22% | 2.59 ± 0.94 µM | >38.6 |  |  |  |  |  |  |  |  | 
